Literature values in patent US20020193313A1, “Method of increasing the efficacy of chemotherapy in the treatment of tumors” (priority 2001, published 2002).

Columns and labels:
various types of cancer = conditions: in vitro
[1] = test system: locally advanced breast cancer; conditions: Tamoxifen to induce cell phase arrest, then estrogen to stimulate growth, 43% without synchronization
[2] = test system: advanced stages of different types of cancer; conditions: topotecan for S phase synchronization followed by doxorubicin

For `C=C[C@H]1C[N@@]2CC[C@H]1C[C@@H]2[C@@H](O)c1ccnc2ccc(OC)cc12` [quinidine], which “phase of cell cycle arrest” value (in vitro breast cancer) is on record?
Its value is “arrest of in vitro breast cancer in the G1 phase”.

With `COC(=O)Nc1nc2ccc(C(=O)c3cccs3)cc2[nH]1` [nocodazole] as the compound, how does the “phase of cell cycle arrest” value (in vitro T-cell lymphoma) read?
Its value is “arrest in the M-phase”.

For `CC/C=C\C/C=C\C/C=C\CCCCCCCC(=O)O` [alpha linoleic acid], which “effect on tumor growth” value (tumor growth) is on record?
Its value is “stimulate tumor growth”.

Which cell cycle arrest (various types of cancer) does the source give for `Cc1c(N)nc([C@H](CC(N)=O)NC[C@H](N)C(N)=O)nc1C(=O)N[C@H](C(=O)N[C@H](C)[C@@H](O)[C@H](C)C(=O)N[C@H](C(=O)NCCc1nc(-c2nc(C(=O)NCCCN[C@@H](C)c3ccccc3)cs2)cs1)[C@@H](C)O)[C@@H](O[C@@H]1O[C@@H](CO)[C@@H](O)[C@H](O)[C@@H]1O[C@H]1O[C@H](CO)[C@@H](O)[C@H](OC(N)=O)[C@@H]1O)c1c[nH]cn1` [peplomycin] here?
The cell cycle arrest was “arrest the cell cycle”.

Which “phase of cell cycle arrest” value (in vitro T-cell lymphoma) does the source give for `C[C@@]1(CO)[C@H](O)CC[C@@]2(C)[C@H]1CC[C@H]1C[C@@H]3C[C@@]12CC[C@]3(O)CO` [aphidicoline] here?
The value was “arrest late in the G1 phase”.

For epidermal growth factor, which “phase of cell cycle arrest” value (in vitro breast cancer) is on record?
The value was “arrest of in vitro breast cancer in the G1 phase”.

Which “patients whose tumors showed favorable response to phase specific chemotherapy” value [1] does the source give for `CC/C(=C(\c1ccccc1)c1ccc(OCCN(C)C)cc1)c1ccccc1` [Tamoxifen] here?
Its value is “approximately 82%”.

With `NC(=O)NO` [hydrea] as the compound, how does the “phase of cell cycle arrest” value (in vitro T-cell lymphoma) read?
The value was “arrest in the S phase”.

With `NC(Cn1ccc(=O)c(O)c1)C(=O)O` (stereo not shown) [mimosine] as the compound, how does the “phase of cell cycle arrest” value (in vitro T-cell lymphoma) read?
The value was “arrest in the G1 phase”.

For `CC[C@@]1(O)C(=O)OCc2c1cc1n(c2=O)Cc2cc3c(CN(C)C)c(O)ccc3nc2-1` [topotecan], which hematologic toxicity [2] is on record?
The hematologic toxicity was “increased hematologic toxicity”.
